Measurements reported in the kinase profiling compilation of Christmann-Franck et al. (2016).

Tests used:
Assay in all cases: radiometric filter-binding kinase assay, Kinase HotSpot
Conditions in all cases: compound 0.5 µM; ATP 10 µM
[1] = biological target: LIMK1 (human) (UniProt P53667)
[2] = biological target: MERTK (human) (UniProt Q12866)
[3] = biological target: MAP3K11 (human) (UniProt Q16584)
[4] = biological target: CDK4 CCND1 (human) (UniProt P24385+P11802)
[5] = biological target: PRKCH (human) (UniProt P24723)
[6] = biological target: DYRK3 (human) (UniProt O43781)
[7] = biological target: TAOK2 (human) (UniProt Q9UL54)
[8] = biological target: MARK1 (human) (UniProt Q9P0L2)
[9] = biological target: ALK (human) (UniProt Q9UM73)
[10] = tested on: PRKCQ (human), Q04759 [P330L]
[11] = biological target: GSG2 (human) (UniProt Q8TF76)
[12] = biological target: OXSR1 (human) (UniProt O95747)
[13] = biological target: CDC42BPB (human) (UniProt Q9Y5S2)
[14] = biological target: STK10 (human) (UniProt O94804)
[15] = biological target: CLK3 (human) (UniProt P49761)
[16] = biological target: TGFBR2 (human) (UniProt P37173)
[17] = biological target: NLK (human) (UniProt Q9UBE8)
[18] = biological target: ACVRL1 (human) (UniProt P37023)
[19] = biological target: PDGFRA (human) (UniProt P16234)
[20] = biological target: NEK9 (human) (UniProt Q8TD19)
[21] = biological target: WNK3 (human) (UniProt Q9BYP7)
[22] = biological target: BRAF (human) (UniProt P15056)
[23] = biological target: STK24 (human) (UniProt Q9Y6E0)
[24] = biological target: CHEK1 (human) (UniProt O14757)
[25] = biological target: RPS6KA4 KD2 (human) (UniProt O75676)
[26] = biological target: PLK2 (human) (UniProt Q9NYY3)
[27] = biological target: EPHA8 (human) (UniProt P29322)
[28] = biological target: MLTK (human) (UniProt Q9NYL2)
[29] = biological target: HCK (human) (UniProt P08631)
[30] = biological target: ROCK1 (human) (UniProt Q13464)
[31] = biological target: SRC (human) (UniProt P12931)
[32] = biological target: IRAK1 (human) (UniProt P51617)
[33] = biological target: MAPK10 (human) (UniProt P53779)
[34] = biological target: MAP3K8 (human) (UniProt P41279)
[35] = biological target: MAPK13 (human) (UniProt O15264)
[36] = biological target: CAMK2A (human) (UniProt Q9UQM7)
[37] = biological target: SIK2 (human) (UniProt Q9H0K1)
[38] = biological target: JAK1 JH1 catalytic (human) (UniProt P23458)
[39] = biological target: NUAK2 (human) (UniProt Q9H093)

MAP3K11 (human), sequence (Q16584 whole entry, looked up): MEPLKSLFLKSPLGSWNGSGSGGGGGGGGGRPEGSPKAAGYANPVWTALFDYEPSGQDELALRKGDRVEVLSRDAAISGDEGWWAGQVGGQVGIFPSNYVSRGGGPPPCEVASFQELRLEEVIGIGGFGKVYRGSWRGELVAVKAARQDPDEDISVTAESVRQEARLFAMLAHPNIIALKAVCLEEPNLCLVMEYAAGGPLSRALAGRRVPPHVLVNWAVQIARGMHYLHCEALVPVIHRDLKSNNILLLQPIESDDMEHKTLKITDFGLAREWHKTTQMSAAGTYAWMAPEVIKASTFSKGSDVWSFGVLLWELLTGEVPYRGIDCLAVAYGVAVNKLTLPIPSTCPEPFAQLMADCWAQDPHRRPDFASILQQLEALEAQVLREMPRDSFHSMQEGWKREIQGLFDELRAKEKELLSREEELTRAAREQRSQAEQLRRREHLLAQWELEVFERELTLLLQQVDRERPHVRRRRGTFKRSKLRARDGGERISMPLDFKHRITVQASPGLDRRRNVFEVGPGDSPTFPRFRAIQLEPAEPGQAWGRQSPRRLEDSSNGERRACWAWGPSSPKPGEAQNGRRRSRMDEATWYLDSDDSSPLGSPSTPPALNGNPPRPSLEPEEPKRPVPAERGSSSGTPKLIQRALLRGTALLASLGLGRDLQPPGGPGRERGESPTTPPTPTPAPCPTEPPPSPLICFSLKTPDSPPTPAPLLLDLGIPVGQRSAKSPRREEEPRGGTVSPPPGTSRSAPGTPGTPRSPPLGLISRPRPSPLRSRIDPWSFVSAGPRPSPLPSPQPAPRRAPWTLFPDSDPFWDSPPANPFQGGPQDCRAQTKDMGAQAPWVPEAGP
PRKCH (human), sequence (P24723 whole entry, looked up): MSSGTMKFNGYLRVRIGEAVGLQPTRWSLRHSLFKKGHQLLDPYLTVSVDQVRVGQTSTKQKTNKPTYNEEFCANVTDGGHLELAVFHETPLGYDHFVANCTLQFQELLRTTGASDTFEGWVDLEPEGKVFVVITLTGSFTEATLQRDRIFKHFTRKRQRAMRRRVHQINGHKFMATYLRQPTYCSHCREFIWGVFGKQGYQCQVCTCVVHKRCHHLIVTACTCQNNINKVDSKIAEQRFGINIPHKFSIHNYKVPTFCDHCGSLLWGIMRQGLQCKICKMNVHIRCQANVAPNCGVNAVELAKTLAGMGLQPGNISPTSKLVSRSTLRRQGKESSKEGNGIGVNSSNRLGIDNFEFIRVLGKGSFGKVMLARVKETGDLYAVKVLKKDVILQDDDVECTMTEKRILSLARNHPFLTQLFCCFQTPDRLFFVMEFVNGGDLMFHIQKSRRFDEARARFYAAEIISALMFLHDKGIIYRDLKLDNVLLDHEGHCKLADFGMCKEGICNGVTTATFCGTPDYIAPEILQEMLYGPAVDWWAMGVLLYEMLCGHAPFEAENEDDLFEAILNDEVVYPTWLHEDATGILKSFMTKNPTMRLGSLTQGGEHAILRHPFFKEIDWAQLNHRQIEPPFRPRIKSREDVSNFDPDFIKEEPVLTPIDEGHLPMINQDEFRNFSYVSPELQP
WNK3 (human), sequence (Q9BYP7 whole entry, looked up): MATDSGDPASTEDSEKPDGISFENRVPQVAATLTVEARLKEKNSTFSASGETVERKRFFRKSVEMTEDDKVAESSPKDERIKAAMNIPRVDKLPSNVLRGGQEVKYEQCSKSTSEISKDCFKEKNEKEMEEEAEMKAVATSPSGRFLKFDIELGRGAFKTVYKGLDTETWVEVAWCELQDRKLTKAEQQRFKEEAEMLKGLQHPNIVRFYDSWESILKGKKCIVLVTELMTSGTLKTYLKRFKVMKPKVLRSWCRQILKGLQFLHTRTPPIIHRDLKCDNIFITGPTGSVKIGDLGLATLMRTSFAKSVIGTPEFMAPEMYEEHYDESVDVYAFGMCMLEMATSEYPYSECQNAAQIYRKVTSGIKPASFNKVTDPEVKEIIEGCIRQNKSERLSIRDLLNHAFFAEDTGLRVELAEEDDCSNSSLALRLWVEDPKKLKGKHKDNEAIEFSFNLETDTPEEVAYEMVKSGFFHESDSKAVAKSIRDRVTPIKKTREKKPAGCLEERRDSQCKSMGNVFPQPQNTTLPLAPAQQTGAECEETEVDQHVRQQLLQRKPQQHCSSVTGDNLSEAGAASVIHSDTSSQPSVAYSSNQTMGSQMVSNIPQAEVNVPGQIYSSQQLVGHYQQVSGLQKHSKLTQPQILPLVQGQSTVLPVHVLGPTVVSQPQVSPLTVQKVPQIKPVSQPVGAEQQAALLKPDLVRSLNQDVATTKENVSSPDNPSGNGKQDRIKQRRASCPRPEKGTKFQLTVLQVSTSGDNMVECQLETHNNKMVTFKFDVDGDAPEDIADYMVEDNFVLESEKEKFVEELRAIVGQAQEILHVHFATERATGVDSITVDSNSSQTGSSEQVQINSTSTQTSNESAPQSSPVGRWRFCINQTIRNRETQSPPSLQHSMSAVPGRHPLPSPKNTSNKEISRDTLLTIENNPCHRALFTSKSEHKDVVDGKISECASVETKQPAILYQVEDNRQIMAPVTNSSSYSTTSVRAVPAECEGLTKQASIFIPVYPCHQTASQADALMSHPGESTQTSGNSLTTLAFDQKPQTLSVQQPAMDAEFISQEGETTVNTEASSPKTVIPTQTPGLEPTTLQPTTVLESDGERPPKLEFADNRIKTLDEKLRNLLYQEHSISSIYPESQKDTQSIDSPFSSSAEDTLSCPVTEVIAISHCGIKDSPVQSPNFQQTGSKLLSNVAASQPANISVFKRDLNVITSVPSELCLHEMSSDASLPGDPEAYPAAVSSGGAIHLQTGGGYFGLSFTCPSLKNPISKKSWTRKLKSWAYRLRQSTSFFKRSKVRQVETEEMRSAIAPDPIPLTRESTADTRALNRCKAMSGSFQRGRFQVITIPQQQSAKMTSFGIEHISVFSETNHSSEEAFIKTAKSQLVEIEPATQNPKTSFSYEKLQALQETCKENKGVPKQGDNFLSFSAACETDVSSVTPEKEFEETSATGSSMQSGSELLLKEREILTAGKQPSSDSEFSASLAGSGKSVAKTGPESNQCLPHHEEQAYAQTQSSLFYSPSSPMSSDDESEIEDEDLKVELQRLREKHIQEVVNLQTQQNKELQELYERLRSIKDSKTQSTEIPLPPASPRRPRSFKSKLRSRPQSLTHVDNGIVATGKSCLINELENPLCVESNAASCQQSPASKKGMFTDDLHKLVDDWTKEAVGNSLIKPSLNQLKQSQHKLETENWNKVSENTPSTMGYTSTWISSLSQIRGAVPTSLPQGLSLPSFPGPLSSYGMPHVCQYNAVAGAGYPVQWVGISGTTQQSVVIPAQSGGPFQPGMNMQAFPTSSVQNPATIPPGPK
SRC (human), sequence (P12931 whole entry, looked up): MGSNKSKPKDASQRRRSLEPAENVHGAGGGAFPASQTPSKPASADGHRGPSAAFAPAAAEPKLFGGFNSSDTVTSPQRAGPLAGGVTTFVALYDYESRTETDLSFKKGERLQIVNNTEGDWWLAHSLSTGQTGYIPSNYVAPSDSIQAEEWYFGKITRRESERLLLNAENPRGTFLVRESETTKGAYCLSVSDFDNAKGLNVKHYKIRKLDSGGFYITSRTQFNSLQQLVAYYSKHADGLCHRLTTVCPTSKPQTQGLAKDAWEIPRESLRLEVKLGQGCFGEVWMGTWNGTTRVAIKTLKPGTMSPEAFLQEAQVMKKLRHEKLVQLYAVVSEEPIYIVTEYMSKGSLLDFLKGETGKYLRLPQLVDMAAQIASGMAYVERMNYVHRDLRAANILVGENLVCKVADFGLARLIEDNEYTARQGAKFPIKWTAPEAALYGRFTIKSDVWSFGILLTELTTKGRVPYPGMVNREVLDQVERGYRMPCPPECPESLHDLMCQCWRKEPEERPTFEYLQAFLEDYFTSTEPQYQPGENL
NEK9 (human), sequence (Q8TD19 whole entry, looked up): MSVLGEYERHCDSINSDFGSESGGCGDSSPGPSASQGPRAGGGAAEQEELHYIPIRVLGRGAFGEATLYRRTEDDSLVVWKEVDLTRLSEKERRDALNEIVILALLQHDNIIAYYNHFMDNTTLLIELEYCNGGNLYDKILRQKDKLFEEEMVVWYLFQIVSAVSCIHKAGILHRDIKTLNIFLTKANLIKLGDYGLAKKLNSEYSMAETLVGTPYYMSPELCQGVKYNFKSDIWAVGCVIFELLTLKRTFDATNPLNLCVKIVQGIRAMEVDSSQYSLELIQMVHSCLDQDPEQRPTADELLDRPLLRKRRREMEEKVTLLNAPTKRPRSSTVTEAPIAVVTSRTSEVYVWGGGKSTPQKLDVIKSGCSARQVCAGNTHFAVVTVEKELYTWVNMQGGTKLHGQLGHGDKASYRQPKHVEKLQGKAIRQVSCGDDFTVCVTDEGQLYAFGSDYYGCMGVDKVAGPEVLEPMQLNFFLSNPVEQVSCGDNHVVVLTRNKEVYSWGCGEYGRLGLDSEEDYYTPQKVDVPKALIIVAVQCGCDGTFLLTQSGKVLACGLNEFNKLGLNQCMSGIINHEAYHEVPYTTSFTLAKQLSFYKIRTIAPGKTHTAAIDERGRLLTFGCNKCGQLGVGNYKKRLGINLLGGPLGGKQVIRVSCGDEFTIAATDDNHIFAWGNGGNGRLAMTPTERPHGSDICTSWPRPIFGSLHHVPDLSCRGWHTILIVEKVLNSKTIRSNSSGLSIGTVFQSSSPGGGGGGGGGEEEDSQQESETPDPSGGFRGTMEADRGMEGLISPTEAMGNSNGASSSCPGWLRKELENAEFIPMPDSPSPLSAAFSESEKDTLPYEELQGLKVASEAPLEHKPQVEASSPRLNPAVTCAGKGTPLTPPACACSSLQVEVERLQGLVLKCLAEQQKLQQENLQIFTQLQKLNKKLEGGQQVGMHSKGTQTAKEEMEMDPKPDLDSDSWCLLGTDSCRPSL

SMILES | residual activity [1] | residual activity [2] | residual activity [3] | residual activity [4] | residual activity [5] | residual activity [6] | residual activity [7] | residual activity [8] | residual activity [9] | residual activity [10] | residual activity [11] | residual activity [12] | residual activity [13] | residual activity [14] | residual activity [15] | residual activity [16] | residual activity [17] | residual activity [18] | residual activity [19] | residual activity [20] | further results
CN(C)c1ccc(/C=C2\C(=O)Nc3ccccc32)cc1 | 97.7% | 92.7% | 88.4% | 97.7% | 92.3% | 99.5% | 102% | 97.3% | 99.7% | 104% | 88.5% | 106% | 89.5% | 95.4% | 89.4% | 124% | 102% | 104% | 79.9% | 99.8% | residual activity [21]: 98.1%; residual activity [22]: 101%; residual activity [23]: 96.7%; residual activity [24]: 98.2%; residual activity [25]: 95.2%; residual activity [26]: 111%; residual activity [27]: 103%; residual activity [28]: 96.5%; residual activity [29]: 110%; residual activity [30]: 98.3%; residual activity [31]: 102%; residual activity [32]: 102%; residual activity [33]: 82.9%; residual activity [34]: 99.6%; residual activity [35]: 97.1%; residual activity [36]: 106%; residual activity [37]: 101%; residual activity [38]: 105%; residual activity [39]: 94.3%
COc1ccc(Cl)cc1NC(=O)Nc1cc(C)nc2ccccc12 | 87.1% | 93.3% | 89% | 98.8% | 88.6% | 106% | 98.2% | 102% | 99.2% | 96.7% | 95.7% | 101% | 94.4% | 90.9% | 97.5% | 111% | 94.5% | 98.6% | 88.5% | 104% | residual activity [21]: 99.9%; residual activity [22]: 98.9%; residual activity [23]: 81.6%; residual activity [24]: 96.6%; residual activity [25]: 94%; residual activity [26]: 102%; residual activity [27]: 97.8%; residual activity [28]: 99.7%; residual activity [29]: 101%; residual activity [30]: 100%; residual activity [31]: 99%; residual activity [32]: 91.2%; residual activity [33]: 86%; residual activity [34]: 99.5%; residual activity [35]: 108%; residual activity [36]: 101%; residual activity [37]: 87.8%; residual activity [38]: 99.3%; residual activity [39]: 100%
O=C1NC(=O)c2c1c1c3ccccc3[nH]c1n1cncc21 | 74.7% | 53.9% | 57.5% | 86% | 74.8% | 85.8% | 89.4% | 36.7% | 84.6% | 88.9% | 33.5% | 97.2% | 94.8% | 69% | 48.2% | 95.8% | 87.9% | 109% | 84.4% | 77.4% | residual activity [21]: 79.1%; residual activity [22]: 101%; residual activity [23]: 48.4%; residual activity [24]: 24.6%; residual activity [25]: 61.3%; residual activity [26]: 63.8%; residual activity [27]: 97.5%; residual activity [28]: 78.7%; residual activity [29]: 94.6%; residual activity [30]: 95.9%; residual activity [31]: 88.4%; residual activity [32]: 83.1%; residual activity [33]: 96%; residual activity [34]: 100%; residual activity [35]: 107%; residual activity [36]: 55.1%; residual activity [37]: 91.9%; residual activity [38]: 102%; residual activity [39]: 80.1%
COc1cc2ncnc(Nc3ccc(OCc4ccccc4)cc3)c2cc1OC | 95.4% | 19.5% | 92.2% | 99.2% | 97.2% | 101% | 106% | 103% | 103% | 102% | 86.2% | 110% | 98.8% | 68.2% | 98.2% | 121% | 96.5% | 102% | 91.3% | 104% | residual activity [21]: 90.8%; residual activity [23]: 104%; residual activity [24]: 101%; residual activity [25]: 105%; residual activity [26]: 109%; residual activity [27]: 102%; residual activity [28]: 96.2%; residual activity [29]: 74.5%; residual activity [30]: 96.6%; residual activity [31]: 102%; residual activity [32]: 97.4%; residual activity [33]: 84.5%; residual activity [34]: 90.1%; residual activity [35]: 103%; residual activity [36]: 107%; residual activity [37]: 73.7%; residual activity [38]: 101%; residual activity [39]: 101%
COc1ccc2c(c1)c(C1=C(c3c[nH]c4ccccc34)C(=O)NC1=O)cn2CCCN(C)C | 81.8% | 84% | 75.6% | 78.6% | 6.85% | 81% | 80.8% | 93.2% | 96% | 4.5% | 93.5% | 97.7% | 89.4% | 31.7% | 43.6% | 120% | 87.9% | 87.8% | 85.2% | 90.3% | residual activity [21]: 92%; residual activity [23]: 36.6%; residual activity [24]: 88.8%; residual activity [25]: 78.6%; residual activity [26]: 103%; residual activity [27]: 102%; residual activity [28]: 95.9%; residual activity [29]: 111%; residual activity [30]: 93.5%; residual activity [31]: 79.8%; residual activity [32]: 89%; residual activity [33]: 88.8%; residual activity [34]: 93.8%; residual activity [35]: 108%; residual activity [36]: 102%; residual activity [37]: 103%; residual activity [38]: 100%; residual activity [39]: 81%
